Reference: PMC9468552 (Clinical and Translational Science, 2022)

What was measured:
CYP1A2 = target: T1, CYP1A2 (Homo sapiens, UniProt P05177); experiment: Study 004: DDI of EDP‐305; assay type: in vivo; settings: for Cmax: human, plasma, oral, Geo LSMean
T1 sequence (P05177 1-516): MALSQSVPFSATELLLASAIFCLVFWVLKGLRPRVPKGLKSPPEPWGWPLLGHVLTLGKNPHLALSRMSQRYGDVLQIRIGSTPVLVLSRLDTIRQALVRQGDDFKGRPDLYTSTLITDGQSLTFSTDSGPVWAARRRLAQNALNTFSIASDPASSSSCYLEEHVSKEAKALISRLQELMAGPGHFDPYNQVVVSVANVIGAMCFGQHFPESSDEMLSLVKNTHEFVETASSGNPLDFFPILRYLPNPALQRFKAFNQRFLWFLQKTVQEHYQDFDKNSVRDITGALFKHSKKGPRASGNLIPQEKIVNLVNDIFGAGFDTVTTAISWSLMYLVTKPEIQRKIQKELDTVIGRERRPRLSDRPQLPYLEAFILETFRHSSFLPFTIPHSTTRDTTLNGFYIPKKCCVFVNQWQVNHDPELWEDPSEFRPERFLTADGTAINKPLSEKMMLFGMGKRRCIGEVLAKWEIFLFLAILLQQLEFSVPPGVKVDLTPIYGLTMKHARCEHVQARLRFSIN

CYP3A4 [1] = target: T2, CYP3A4 (Homo sapiens, UniProt P08684); experiment: Study 008: effect of EDP‐305 on combined oral contraceptive; assay type: in vivo; settings: for AUC0,t, Geo LSMean ratio (90% CI) / Cmax, Geo LSMean ratio (90% CI): OC + EDP‐305 vs OC alone; for AUC(0-t) / Cmax: human, plasma, oral, Geo LSMean, day 21; for AUC(0-t): AUC0,t
CYP3A4 [2] = target: T2, CYP3A4; experiment: Study 004: DDI of EDP‐305; assay type: in vivo; settings: for Cmax: human, plasma, oral, Geo LSMean
OATP1B1/B3 and BCRP = experiment: Study 004: DDI of EDP‐305; assay type: in vivo, human
[3] = caffeine + EDP‐305 vs caffeine alone
[4] = OC + EDP‐305 2.5 mg tablet (test)
[5] = midazolam 2 mg + EDP‐305 10 mg (test)
[6] = midazolam + EDP‐305 vs midazolam alone
[7] = rosuvastatin + EDP‐305 vs rosuvastatin alone

T2 sequence (P08684 whole entry): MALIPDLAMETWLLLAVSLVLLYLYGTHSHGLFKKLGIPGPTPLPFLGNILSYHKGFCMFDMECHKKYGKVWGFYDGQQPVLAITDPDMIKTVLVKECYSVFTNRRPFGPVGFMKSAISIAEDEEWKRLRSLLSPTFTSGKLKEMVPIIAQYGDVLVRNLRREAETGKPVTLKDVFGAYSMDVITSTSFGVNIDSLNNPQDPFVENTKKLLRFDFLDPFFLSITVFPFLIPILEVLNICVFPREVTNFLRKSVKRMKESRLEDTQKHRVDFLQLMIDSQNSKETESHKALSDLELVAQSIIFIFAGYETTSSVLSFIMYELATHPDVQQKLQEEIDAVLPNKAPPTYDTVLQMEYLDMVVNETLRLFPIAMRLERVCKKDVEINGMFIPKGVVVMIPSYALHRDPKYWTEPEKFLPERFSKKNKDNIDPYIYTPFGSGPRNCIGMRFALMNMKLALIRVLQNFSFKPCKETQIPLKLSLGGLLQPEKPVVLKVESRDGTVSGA

SMILES: Cn1c(=O)c2c(ncn2C)n(C)c1=O [caffeine]
- delayed Tmax (increase) (CYP1A2; [3]): 50%
- effect on Vd/F (CYP1A2; [3]): little effect
- increase in AUC0‐t (CYP1A2; [3]): 1.90 fold
- longer t1/2 (increase) (CYP1A2; [3]): 64%
- lower CL/F (decrease) (CYP1A2; [3]): 45%
- Cmax (CYP1A2; 200 mg, caffeine 200 mg alone (reference)): 4190 ng/mL
- Cmax (CYP1A2; caffeine 200 mg + EDP‐305 10 mg (test)): 4720 ng/mL

SMILES: C#C[C@]1(O)CC[C@H]2[C@@H]3CCc4cc(O)ccc4[C@H]3CC[C@@]21C [ethinyl estradiol]
- AUC0,t, Geo LSMean ratio (90% CI) (CYP3A4 [1]): 1.08 (1.00, 1.16)
- Cmax, Geo LSMean ratio (90% CI) (CYP3A4 [1]): 1.08 (0.99, 1.19)
- AUC(0-t) (CYP3A4 [1]; OC alone (reference)): 1.25 ng·h/mL
- Cmax (CYP3A4 [1]; [4]): 0.148 ng/mL
- Cmax (CYP3A4 [1]; OC alone (reference)): 0.137 ng/mL
- Peak and systemic exposures (Cmax and AUC0‐τ), OC + EDP‐305 vs OC alone (CYP3A4 [1]; in words): similar

SMILES: C#C[C@]1(O)CC[C@H]2[C@@H]3CCC4=CC(=O)CC[C@@H]4[C@H]3CC[C@@]21CC [levonorgestrel]
- AUC0,t, Geo LSMean ratio (90% CI) (CYP3A4 [1]): 1.31 (1.23, 1.39)
- Cmax, Geo LSMean ratio (90% CI) (CYP3A4 [1]): 1.29 (1.21, 1.38)
- AUC(0-t) (CYP3A4 [1]; OC alone (reference)): 57.2 ng·h/mL
- Cmax (CYP3A4 [1]; [4]): 3.85 ng/mL
- Cmax (CYP3A4 [1]; OC alone (reference)): 2.99 ng/mL

SMILES: Cc1ncc2n1-c1ccc(Cl)cc1C(c1ccccc1F)=NC2 [midazolam]
- Cmax (CYP3A4 [2]; 2 mg, midazolam 2 mg alone (reference)): 7.51 ng/mL
- Cmax (CYP3A4 [2]; [5]): 9.41 ng/mL
- AUC0,inf, Geo LSMean (CYP3A4 [2]; [5]): 32.22 ng·h/mL
- delayed Tmax (increase) (CYP3A4 [2]; [6]): 98%
- increase in AUC0‐t (CYP3A4 [2]; [6]): 1.53 fold
- longer t1/2 (increase) (CYP3A4 [2]; [6]): 34%
- lower CL/F (decrease) (CYP3A4 [2]; [6]): 36%
- lower Vd/F (decrease) (CYP3A4 [2]; [6]): 14%

SMILES: CC(C)c1nc(N(C)S(C)(=O)=O)nc(-c2ccc(F)cc2)c1/C=C/[C@@H](O)C[C@@H](O)CC(=O)O [rosuvastatin]
- Cmax (OATP1B1/B3 and BCRP; human, plasma, oral, Cmax, Geo LSMean, rosuvastatin 20 mg + EDP‐305 10 mg (test)): 5.59 ng/mL
- effect on Tmax (OATP1B1/B3 and BCRP; [7]): no apparent effect
- increase in AUC0‐t (OATP1B1/B3 and BCRP; [7]): 1.24 fold
- longer t1/2 (increase) (OATP1B1/B3 and BCRP; [7]): 17%
- lower CL/F (decrease) (OATP1B1/B3 and BCRP; [7]): 20%
